Assay results taken from US8293464B2, “Methods for reducing the internalization of viruses and identification of compounds effective thereof” (Universiteit Gent, priority 2008, dated 2012).
Like-named read-outs stand apart in the source and are kept apart here. Residues, ends and D or L forms follow the SMILES beside them.

Legend:
[1] = tested on: feline monocytes; test: Internalization assay of control ligands (beads, transferrin or albumin) in monocytes; assay type: cell-based; settings: for internalization of a control ligand: control ligand not named
Description: To test the effectiveness of all reagents, a suitable control was used in each experiment. Monocytes seeded on glass coverslips were pre-incubated for 30 minutes at 37° C. with 5% CO2 in the presence of one of the inhibitors. After treatment, the cells were incubated with biotinylated transferrin (Sigma-Aldrich GmbH) or fluorescent 1 μm polystyrene microspheres, FluoSpheres (Molecular Probes-Invitrogen), in presence of the inhibitor. Then, cells were fixed with 1% formaldehyde and permeabilized with 0.1% Triton X-100. The biotinylated transferrin was visualized by incubating the cells with streptavidin-FITC for 1 hour at 37° C. and cells incubated with fluorescent beads were incubated with phalloidin-Texas Red (Molecular Probes-Invitrogen) for 1 hour at 37° C. to visualize the lamellipodia. The glass coverslips were mounted on microscope slides using glycerin-DABCO and analyzed by confocal microscopy. […] Fluorescent beads were considered internalized when they were found inside the cortical actin labeling.

[2] = tested on: surface expressed viral antigens in FIPV infected monocytes; test: Internalization inhibition assay of surface expressed viral antigens (antigen-antibody complexes); assay type: cell-based, feline; settings: each inhibitor at its working concentration; for internalization of viral antigens: 30 min pre-incubation, 30 min with antibodies
[3] = tested on: HSV1 (VERO cells); test: Plaque reduction assay, entry of HSV1 in VERO cells; assay type: cell-based, human herpes simplex virus 1
[4] = tested on: swine influenzavirus in MDCK cells; assay type: cell-based
[5] = tested on: hepatitis C virus (HCV); test: Single infected cell reduction assay, entry of HCV in Huh7.5 hepatoma cells; assay type: cell-based, human hepatitis C virus; settings: 25 μM; Huh7.5 cells
Description: The single infected cell reduction assay was used to determine the antiviral potency of to ML-7 on the entry of hepatitis C virus (HCV). • 1. Day 1
Huh7.5 hepatoma cells were seeded in a 96-well plate at 10000 cells/well in 100 μl medium containing 0, 2.5 or 25 μM of ML-7. • 2. Day 2
Virus was diluted in medium containing the different concentrations of the inhibitor to reach an end concentration of 2,22.10^6 IU/ml. 100 μl of this mixture was added to the wells and the plate was further incubated at 37° C. • 3. Day 6
The cells were fixed and stained for NS5A (a HCV protein). Then the amount of HCV-positive clusters per well was counted. A cluster is defined as a group of positive cells that is separated from another cluster by at least 1 non-infected cell.

[6] = tested on: Porcine respiratory coronavirus (PRCV) in ST cells; test: Plaque reduction assay, entry of porcine respiratory coronavirus in ST cells; assay type: cell-based
[7] = tested on: FIPV 1146 (CrFK cells); test: Plaque reduction assay, entry of FIPV 1146 in CrFK cells; assay type: cell-based, feline infectious peritonitis virus
[8] = tested on: PrV infected porcine monocytes; test: Antibody-induced internalization of PrV viral proteins in porcine monocytes; assay type: cell-based; settings: 10 μM
[9] = tested on: protein kinase A; settings: 50 and 100 μM; cited from earlier work
[10] = tested on: PRRSV in MARC cells; test: Plaque reduction assay, entry of PRRSV in MARC cells; assay type: cell-based, Porcine reproductive and respiratory syndrome virus
[11] = tested on: protein kinase C; settings: 50 and 100 μM; cited from earlier work
[12] = tested on: FeHV (CrFK cells); test: Plaque reduction assay, entry of feline herpesvirus in CrFK cells; assay type: cell-based
[13] = tested on: FECV 1863 (CrFK cells); test: Plaque reduction assay, entry of FECV 1863 in CrFK cells; assay type: cell-based, feline enteric coronavirus
[14] = tested on: FIPV Black (fcwf cells); test: Plaque reduction assay, entry of FIPV Black in fcwf cells; assay type: cell-based, feline infectious peritonitis virus; settings: FIPV strain Black
[15] = tested on: HIV-1 NL4.3-eGFP; assay type: cell-based, Human Immunodeficiency Virus 1
Description: In this experiment the Human Immunodeficiency Virus 1 (HIV-1) strain HIV-1 NL4.3-eGFP which is a lab strain with an eGFP reporter, was used to infect the human T-cell lymphoblatic lymphoma cell line SupT1. The percentage of eGFP positive cells measured at different time point was used as endpoint read out SupT1. ML-7 inhibitor was used at three different concentration: 0 (DMSO), 2,5 and 25 μM.
SupT1 cells were at a concentration of 20000 cell/well in 200 μl of iMDM medium supplemented with 10% FCS, 1% penicillin/streptomycin and 1% L-glutamine, and were centrifuged at 300 g for 5 min at 4° C. Supernatant was removed and the cells were treated for 30 min with 100 μl of 0 (DMSO at 1/200 dilution in culture medium), 5 and 50 μM ML-7 inhibitor prepared in culture medium at 1/2000 and 1/200 dilution respectively. Meanwhile, HIV-1 NL4.3-eGFP virus was diluted in 10 fold dilution series in a separate plate (starting from 1/5 of stock, put on first well). 100 μl of each virus at every dilution was transferred to the corresponding well of the culture plate treated with the inhibitor. Four hours later approximately 100 μl was transferred to an
Cells were centrifuged at 300 g for 5 min at 4° C. and approximately 100 μl was collected then stored at −80° C. for p24 measurement. Then 100 μl of cells infected with HIV1-NL4.3-eGFP virus was collected for the determination of the percentage of eGFP positive cells by FACS. Cells were resuspended in 200 μl of medium containing the adequate ML-7 inhibitor concentration. • 3. Day 7
Cells were treated in the same way as in day 3
During the course of the experiment cells were monitored carefully by microscopy to check for signs of infection such as: • eGFP expression • Syncytia formation • Cell death Results

[16] = tested on: EHV (EEL cells); test: Plaque reduction assay, entry of equine herpesvirus in EEL cells; assay type: cell-based
[17] = tested on: PRRSV in alveolar macrophage; assay type: cell-based, Porcine reproductive and respiratory syndrome virus
[18] = tested on: feline monocytes; test: Internalization assay of control ligands (beads, transferrin or albumin) in monocytes; assay type: cell-based; settings: 50 μg/ml genistein
[19] = inhibitor at working concentration
[20] = feline coronaviruses, FIG. 4, 50 and 100 μM
[21] = feline coronaviruses, FIG. 4, higher concentrations
[22] = Day 3, 2.5 μM, virus dilution 10X
[23] = Day 3, 2.5 μM, virus dilution 100X
[24] = Day 3, 2.5 μM, virus dilution 1000X
[25] = Day 3, 25 μM, virus dilution 10X
[26] = Day 3, 25 μM, virus dilution 100X
[27] = Day 3, 25 μM, virus dilution 1000X
[28] = Day 7, 2.5 μM, virus dilution 10X
[29] = Day 7, 2.5 μM, virus dilution 100X
[30] = Day 7, 2.5 μM, virus dilution 1000X, at or below detection limit
[31] = Day 7, 25 μM, virus dilution 10X
[32] = Day 7, 25 μM, virus dilution 100X
[33] = Day 7, 25 μM, virus dilution 1000X, at or below detection limit

Compound: O=S(=O)(NCCNC/C=C/c1ccc(Br)cc1)c1cccc2cnccc12 [H-89]
- internalization of a control ligand [1, 19]: 33±29%
- internalization of viral antigens (in words) [2]: unaffected

Compound: COC(=O)[C@@]1(O)C[C@H]2O[C@]1(C)n1c3ccccc3c3c4c(c5c6ccccc6n2c5c31)C(=O)NC4 [K252a, K-252a]
- internalization of the control ligand (beads), in words ([1]; 150 nM K-252a): inhibited
- internalization of viral antigens (in words) [2]: inhibited

Compound: COc1ccc(S(=O)(=O)N(CCO)c2ccccc2CN(C)C/C=C/c2ccc(Cl)cc2)cc1 [KN-93]
- internalization of a control ligand [1, 19]: 23±16%
- internalization of viral antigens (in words) [2]: unaffected

Compound: O=S(=O)(c1cccc2c(I)cccc12)N1CCCNCC1 [ML-7]
- plaques, % of the untreated control ([3]; 1,56 μM): 81 % of the untreated control
- additional effect at high concentration ([3]; 25 and 100 μM): additional effect
- number of plaques, % of the control ([4]; 3,13 μM): 76 % of the control
- further reduction at the higher concentrations ([4]; higher concentrations): no further reduction
- amount of infected clusters, % of the untreated control [5]: 31 % of the untreated control
- internalization of the control ligand beads [1, 19]: 11±5 % of untreated control
- number of plaques, % of the untreated control ([6]; 50 μM): about 40 % of the untreated control
- entry (plaque formation), % of the untreated control ([6]; 1,56 μM): 68 % of the untreated control
- inhibitory effect at higher concentrations ([6]; higher concentrations (up to 6 μM)): inhibitory effect is lost again
- reduction of entry, % of the control ([7]; FIPV on CrFK cells, 3,13 μM): 88 % of the control
- inhibitory effect on entry at the highest concentrations [7, 20]: inhibitory effect increased rapidly
- inhibitory effect on entry at higher concentrations [7, 21]: inhibitory effect seemed to be lost again
- antibody-induced internalization of PrV viral proteins [8]: can be inhibited
- block of protein kinase A [9]: can also block
- effect on entry [10]: activating effect instead of an inhibiting effect
- internalization of viral antigens [2]: 12±21 % of untreated control
- block of protein kinase C [11]: can also block
- additional effect at high concentration ([12]; 100 μM): additional inhibitory effect
- plaques, % of the untreated control ([12]; 1,56 μM): 79 % of the untreated control
- reduction of entry, % of the control ([13]; FECV on CrFK cells, 1,56 μM): 73%
- inhibitory effect on entry at the highest concentrations [13, 20]: inhibitory effect increased rapidly
- inhibitory effect on entry at higher concentrations [13, 21]: inhibitory effect seemed to be lost again
- effect on the entry process [14]: little effect
- protection from virus mediated cell death ([15]; 25 μM): protected
- Percentage of eGFP cells [15, 22]: 2.98%
- eGFP cells relative to 0 μM ML-7 (100%) [15, 22]: (80%)
- Percentage of eGFP cells [15, 23]: 0.18%
- eGFP cells relative to 0 μM ML-7 (100%) [15, 23]: (46%)
- Percentage of eGFP cells [15, 24]: 0.04%
- eGFP cells relative to 0 μM ML-7 (100%) [15, 24]: (36%)
- Percentage of eGFP cells [15, 25]: 1.52%
- eGFP cells relative to 0 μM ML-7 (100%) [15, 25]: (41%)
- Percentage of eGFP cells [15, 26]: 0.19%
- eGFP cells relative to 0 μM ML-7 (100%) [15, 26]: (49%)
- Percentage of eGFP cells [15, 27]: 0.06%
- eGFP cells relative to 0 μM ML-7 (100%) [15, 27]: (54%)
- Percentage of eGFP cells [15, 28]: 35.8%
- eGFP cells relative to 0 μM ML-7 (100%) [15, 28]: (92%)
- Percentage of eGFP cells [15, 29]: 18.64%
- eGFP cells relative to 0 μM ML-7 (100%) [15, 29]: (44%)
- Percentage of eGFP cells [15, 30]: 0.95%
- eGFP cells relative to 0 μM ML-7 (100%) [15, 30]: (3160%)°
- Percentage of eGFP cells [15, 31]: 1.13%
- eGFP cells relative to 0 μM ML-7 (100%) [15, 31]: (3%)
- Percentage of eGFP cells [15, 32]: 0.14%
- eGFP cells relative to 0 μM ML-7 (100%) [15, 32]: (0.3%)
- Percentage of eGFP cells [15, 33]: 0.06%
- eGFP cells relative to 0 μM ML-7 (100%) [15, 33]: (200%)
- inhibition of HIV-1 NL4.3-eGFP infection ([15]; SupT1 cells): strong inhibition
- toxic effect on cells ([15]; SupT1 cells): No toxic effect
- virus induced syncytia ([15]; high concentration, data not shown): inhibited completely
- protection from virus mediated cell death ([15]; intermediate inhibitor concentration): mild
- additional effect at high concentration ([16]; 100 μM): additional inhibitory effect
- plaques, % of the untreated control ([16]; 1,56 μM): 86 % of the untreated control
- number of plaques, % of the control ([17]; 0,78 μM): 68 % of the control
- further reduction at the higher concentrations ([17]; higher concentrations): no further reduction

Compound: CC(NC(=O)C(CCCN=C(N)N)NC(=O)C(CCCCN)NC(=O)C(N)CCCN=C(N)N)C(=O)NC(CCCN=C(N)N)C(=O)NC(CCCCN)C(=O)NC(CCC(=O)O)C(=O)O (centres unmarked) [PKG-inhibitor] (H-RKRARKE-OH; configuration not given here)
- internalization of a control ligand [1, 19]: 14±7%
- internalization of viral antigens (in words) [2]: unaffected

Compound: CN(C)CCCn1cc(C2=C(c3c[nH]c4ccccc34)C(=O)NC2=O)c2ccccc21 [bisindolylmaleimide I]
- internalization of a control ligand [1, 19]: 25±13%
- internalization of viral antigens (in words) [2]: unaffected

Compound: CN(N=O)c1cc(O)ccc1O [dephostatin]
- internalization of the control ligand beads [1, 19]: 2±3 % of untreated control
- internalization of viral antigens [2]: 96±23 % of untreated control

Compound: O=c1c(-c2ccc(O)cc2)coc2cc(O)cc(O)c12 [genistein]
- internalization of viral antigens [2]: 81±4 % of untreated control
- internalization of the control ligand albumin [18]: 3±5 % of the untreated control

Compound: [F-].[Na+] [sodium fluoride]
- internalization of the control ligand transferrin [1, 19]: 46±6 % of the untreated control
- internalization of viral antigens (in words) [2]: no reduction

Compound: CN[C@@H]1C[C@H]2O[C@@](C)([C@@H]1OC)n1c3ccccc3c3c4c(c5c6ccccc6n2c5c31)C(=O)NC4 [staurosporine]
- internalization of the control ligand beads [1, 19]: 23±4 % of untreated control
- internalization of viral antigens [2]: 21±2 % of untreated control
